Test results from US6380231B1 (priority 1995, dated 2002).

## CO/C=C(/C(=O)OC)c1ccccc1COc1ncn(-c2ccccc2Cl)n1 [Compound 12, Methyl α-(2-(N′-(o-chlorophenyl)-triazolyl-3′-oxymethyl)-phenyl)-β-methoxyacrylate]
  melting point: 120 °C
